Data on 16 molecules can be found in ChEMBL document CHEMBL1144385, “Solid-phase synthesis and antibacterial evaluations of N-demethylvancomycin derivatives” (2005).

In brackets after ≈: the same amount, converted by molar mass.

As a reminder, the MIC is the lowest concentration that inhibits growth of the organism. Lower therefore signals a more susceptible organism.

Common to all, as to format: functional
For assay [1], the system named is Staphylococcus aureus. As to the kind of experiment: Minimum inhibitory concentration against growth of Methicillin resistant […] aureus.
Assay [2] deals with Staphylococcus aureus. Briefly: Minimum inhibitory concentration against growth of […] aureus (ATCC 29213).
The subject of assay [3] is Enterococcus faecalis. As to the kind of experiment: Minimum inhibitory concentration against growth of Enterococcus faecalis (ATCC 29212).
Assay [4] deals with Enterococcus faecalis. As to the kind of experiment: Minimum inhibitory concentration against growth of vancomycin-resistant Enterococcus faecalis (ATCC 51299).

In the case of `CC(C)C[C@@H](N)C(=O)N[C@H]1C(=O)N[C@@H](CC(N)=O)C(=O)N[C@H]2C(=O)N[C@H]3C(=O)N[C@H](C(=O)N[C@H](C(=O)NCC(=O)O)c4cc(O)cc(O)c4-c4cc3ccc4O)[C@H](O)c3ccc(c(Cl)c3)Oc3cc2cc(c3O[C@@H]2O[C@@H](CO)[C@@H](O)[C@H](O)[C@@H]2O[C@H]2C[C@](C)(Nc3ccc(-c4ccccc4)cc3)[C@H](O)[C@H](C)O2)Oc2ccc(cc2Cl)[C@H]1O`, the minimal inhibitory concentration (MIC) is 5 µg/mL (≈ 3.04 µM) in the assay with Staphylococcus aureus [1], 5 µg/mL (≈ 3.04 µM) against Staphylococcus aureus [2], 5 µg/mL (≈ 3.04 µM) with Enterococcus faecalis [3] and greater than 10 µg/mL against Enterococcus faecalis [4].

For `CC(C)C[C@@H](NC(=O)OCC1c2ccccc2-c2ccccc21)C(=O)N[C@H]1C(=O)N[C@@H](CC(N)=O)C(=O)N[C@H]2C(=O)N[C@H]3C(=O)N[C@H](C(=O)N[C@H](C(=O)NCC(=O)O)c4cc(O)cc(O)c4-c4cc3ccc4O)[C@H](O)c3ccc(c(Cl)c3)Oc3cc2cc(c3O[C@@H]2O[C@@H](CO)[C@@H](O)[C@H](O)[C@@H]2O[C@H]2C[C@](C)(N)[C@H](O)[C@H](C)O2)Oc2ccc(cc2Cl)[C@H]1O`, the minimum inhibitory concentration (MIC) is 5 µg/mL (≈ 2.92 µM) against Staphylococcus aureus [1], 1.25 µg/mL (≈ 0.729 µM) against Staphylococcus aureus [2], 5 µg/mL (≈ 2.92 µM) in the assay with Enterococcus faecalis [3] and greater than 10 µg/mL against Enterococcus faecalis [4].

For `CCCN[C@H](CC(C)C)C(=O)N[C@H]1C(=O)N[C@@H](CC(N)=O)C(=O)N[C@H]2C(=O)N[C@H]3C(=O)N[C@H](C(=O)N[C@H](C(=O)NCC(=O)O)c4cc(O)cc(O)c4-c4cc3ccc4O)[C@H](O)c3ccc(c(Cl)c3)Oc3cc2cc(c3O[C@@H]2O[C@@H](CO)[C@@H](O)[C@H](O)[C@@H]2O[C@H]2C[C@](C)(Nc3ccc(-c4ccccc4)cc3)[C@H](O)[C@H](C)O2)Oc2ccc(cc2Cl)[C@H]1O`, the MIC with Staphylococcus aureus [1] was 5 µg/mL (≈ 2.96 µM); in the assay on Staphylococcus aureus [2] it was 5 µg/mL (≈ 2.96 µM); with Enterococcus faecalis [3], 10 µg/mL (≈ 5.93 µM); in the assay with Enterococcus faecalis [4], greater than 10 µg/mL.

For the molecule `CCCN(CCC)[C@H](CC(C)C)C(=O)N[C@H]1C(=O)N[C@@H](CC(N)=O)C(=O)N[C@H]2C(=O)N[C@H]3C(=O)N[C@H](C(=O)N[C@H](C(=O)NCC(=O)O)c4cc(O)cc(O)c4-c4cc3ccc4O)[C@H](O)c3ccc(c(Cl)c3)Oc3cc2cc(c3O[C@@H]2O[C@@H](CO)[C@@H](O)[C@H](O)[C@@H]2O[C@H]2C[C@](C)(Nc3ccc(OC)cc3)[C@H](O)[C@H](C)O2)Oc2ccc(cc2Cl)[C@H]1O`, the minimum inhibitory concentration (MIC) is 10 µg/mL (≈ 5.94 µM) in the assay on Staphylococcus aureus [1], greater than 10 µg/mL in the assay with Staphylococcus aureus [2], greater than 10 µg/mL in the assay on Enterococcus faecalis [3] and greater than 10 µg/mL against Enterococcus faecalis [4].

On to `CC(C)C[C@@H](N)C(=O)N[C@H]1C(=O)N[C@@H](CC(N)=O)C(=O)N[C@H]2C(=O)N[C@H]3C(=O)N[C@H](C(=O)N[C@H](C(=O)NCC(=O)O)c4cc(O)cc(O)c4-c4cc3ccc4O)[C@H](O)c3ccc(c(Cl)c3)Oc3cc2cc(c3O[C@@H]2O[C@@H](CO)[C@@H](O)[C@H](O)[C@@H]2O[C@H]2C[C@](C)(Nc3ccc(Cl)cc3)[C@H](O)[C@H](C)O2)Oc2ccc(cc2Cl)[C@H]1O`, for which the minimal inhibitory concentration (MIC) with Staphylococcus aureus [1] was 5 µg/mL (≈ 3.12 µM); with Staphylococcus aureus [2], 5 µg/mL (≈ 3.12 µM); against Enterococcus faecalis [3], 10 µg/mL (≈ 6.24 µM); in the assay on Enterococcus faecalis [4], greater than 10 µg/mL.

For `C/C=C/CN[C@H](CC(C)C)C(=O)N[C@H]1C(=O)N[C@@H](CC(N)=O)C(=O)N[C@H]2C(=O)N[C@H]3C(=O)N[C@H](C(=O)N[C@H](C(=O)NCC(=O)O)c4cc(O)cc(O)c4-c4cc3ccc4O)[C@H](O)c3ccc(c(Cl)c3)Oc3cc2cc(c3O[C@@H]2O[C@@H](CO)[C@@H](O)[C@H](O)[C@@H]2O[C@H]2C[C@](C)(Nc3ccc(OC)cc3)[C@H](O)[C@H](C)O2)Oc2ccc(cc2Cl)[C@H]1O`, the MIC in the assay with Staphylococcus aureus [1] was 10 µg/mL (≈ 6.05 µM); against Staphylococcus aureus [2], 10 µg/mL (≈ 6.05 µM); in the assay on Enterococcus faecalis [3], greater than 10 µg/mL; in the assay on Enterococcus faecalis [4], greater than 10 µg/mL.

For the molecule `CCC(CC)N[C@H](CC(C)C)C(=O)N[C@H]1C(=O)N[C@@H](CC(N)=O)C(=O)N[C@H]2C(=O)N[C@H]3C(=O)N[C@H](C(=O)N[C@H](C(=O)NCC(=O)O)c4cc(O)cc(O)c4-c4cc3ccc4O)[C@H](O)c3ccc(c(Cl)c3)Oc3cc2cc(c3O[C@@H]2O[C@@H](CO)[C@@H](O)[C@H](O)[C@@H]2O[C@H]2C[C@](C)(Nc3ccc(OC)cc3)[C@H](O)[C@H](C)O2)Oc2ccc(cc2Cl)[C@H]1O`, the minimal inhibitory concentration (MIC) in the assay on Staphylococcus aureus [1], against Staphylococcus aureus [2], with Enterococcus faecalis [3] and in the assay with Enterococcus faecalis [4] was greater than 10 µg/mL throughout.

For `CCC(CC)N[C@H](CC(C)C)C(=O)N[C@H]1C(=O)N[C@@H](CC(N)=O)C(=O)N[C@H]2C(=O)N[C@H]3C(=O)N[C@H](C(=O)N[C@H](C(=O)NCC(=O)O)c4cc(O)cc(O)c4-c4cc3ccc4O)[C@H](O)c3ccc(c(Cl)c3)Oc3cc2cc(c3O[C@@H]2O[C@@H](CO)[C@@H](O)[C@H](O)[C@@H]2O[C@H]2C[C@](C)(N)[C@H](O)[C@H](C)O2)Oc2ccc(cc2Cl)[C@H]1O`, the MIC with Staphylococcus aureus [1] is 10 µg/mL (≈ 6.4 µM); with Staphylococcus aureus [2], 10 µg/mL (≈ 6.4 µM); against Enterococcus faecalis [3], greater than 10 µg/mL; against Enterococcus faecalis [4], greater than 10 µg/mL.

With `CCCN[C@H](CC(C)C)C(=O)N[C@H]1C(=O)N[C@@H](CC(N)=O)C(=O)N[C@H]2C(=O)N[C@H]3C(=O)N[C@H](C(=O)N[C@H](C(=O)NCC(=O)O)c4cc(O)cc(O)c4-c4cc3ccc4O)[C@H](O)c3ccc(c(Cl)c3)Oc3cc2cc(c3O[C@@H]2O[C@@H](CO)[C@@H](O)[C@H](O)[C@@H]2O[C@H]2C[C@](C)(Nc3ccc(Cl)cc3)[C@H](O)[C@H](C)O2)Oc2ccc(cc2Cl)[C@H]1O`, the MIC in the assay with Staphylococcus aureus [1] was 10 µg/mL (≈ 6.08 µM); with Staphylococcus aureus [2] it was 10 µg/mL (≈ 6.08 µM); in the assay on Enterococcus faecalis [3], greater than 10 µg/mL; in the assay with Enterococcus faecalis [4], greater than 10 µg/mL.

As to `CCC(CC)N[C@H](CC(C)C)C(=O)N[C@H]1C(=O)N[C@@H](CC(N)=O)C(=O)N[C@H]2C(=O)N[C@H]3C(=O)N[C@H](C(=O)N[C@H](C(=O)NCC(=O)O)c4cc(O)cc(O)c4-c4cc3ccc4O)[C@H](O)c3ccc(c(Cl)c3)Oc3cc2cc(c3O[C@@H]2O[C@@H](CO)[C@@H](O)[C@H](O)[C@@H]2O[C@H]2C[C@](C)(Nc3ccc(Cl)cc3)[C@H](O)[C@H](C)O2)Oc2ccc(cc2Cl)[C@H]1O`, the minimal inhibitory concentration (MIC) against Staphylococcus aureus [1], against Staphylococcus aureus [2], in the assay on Enterococcus faecalis [3] and in the assay on Enterococcus faecalis [4] was greater than 10 µg/mL throughout.

For the molecule `CCCN(CCC)[C@H](CC(C)C)C(=O)N[C@H]1C(=O)N[C@@H](CC(N)=O)C(=O)N[C@H]2C(=O)N[C@H]3C(=O)N[C@H](C(=O)N[C@H](C(=O)NCC(=O)O)c4cc(O)cc(O)c4-c4cc3ccc4O)[C@H](O)c3ccc(c(Cl)c3)Oc3cc2cc(c3O[C@@H]2O[C@@H](CO)[C@@H](O)[C@H](O)[C@@H]2O[C@H]2C[C@](C)(Nc3ccc(F)cc3)[C@H](O)[C@H](C)O2)Oc2ccc(cc2Cl)[C@H]1O`, the MIC in the assay with Staphylococcus aureus [1], against Staphylococcus aureus [2], against Enterococcus faecalis [3] and with Enterococcus faecalis [4] was greater than 10 µg/mL each time.

As for `CC(C)C[C@H](C(=O)N[C@H]1C(=O)N[C@@H](CC(N)=O)C(=O)N[C@H]2C(=O)N[C@H]3C(=O)N[C@H](C(=O)N[C@H](C(=O)NCC(=O)O)c4cc(O)cc(O)c4-c4cc3ccc4O)[C@H](O)c3ccc(c(Cl)c3)Oc3cc2cc(c3O[C@@H]2O[C@@H](CO)[C@@H](O)[C@H](O)[C@@H]2O[C@H]2C[C@](C)(N)[C@H](O)[C@H](C)O2)Oc2ccc(cc2Cl)[C@H]1O)N(C)C(=O)OCC1c2ccccc2-c2ccccc21`, the MIC was 10 µg/mL (≈ 5.79 µM) in the assay with Staphylococcus aureus [1], 10 µg/mL (≈ 5.79 µM) with Staphylococcus aureus [2], 10 µg/mL (≈ 5.79 µM) against Enterococcus faecalis [3] and greater than 10 µg/mL against Enterococcus faecalis [4].

For the molecule `CCCN(CCC)[C@H](CC(C)C)C(=O)N[C@H]1C(=O)N[C@@H](CC(N)=O)C(=O)N[C@H]2C(=O)N[C@H]3C(=O)N[C@H](C(=O)N[C@H](C(=O)NCC(=O)O)c4cc(O)cc(O)c4-c4cc3ccc4O)[C@H](O)c3ccc(c(Cl)c3)Oc3cc2cc(c3O[C@@H]2O[C@@H](CO)[C@@H](O)[C@H](O)[C@@H]2O[C@H]2C[C@](C)(Nc3ccc(-c4ccccc4)cc3)[C@H](O)[C@H](C)O2)Oc2ccc(cc2Cl)[C@H]1O`, the minimal inhibitory concentration (MIC) in the assay on Staphylococcus aureus [1] is 5 µg/mL (≈ 2.89 µM); with Staphylococcus aureus [2], 5 µg/mL (≈ 2.89 µM); in the assay on Enterococcus faecalis [3] it was greater than 10 µg/mL; against Enterococcus faecalis [4], greater than 10 µg/mL.

Consider `CC(C)C[C@@H](Nc1ccc(F)cc1)C(=O)N[C@H]1C(=O)N[C@@H](CC(N)=O)C(=O)N[C@H]2C(=O)N[C@H]3C(=O)N[C@H](C(=O)N[C@H](C(=O)NCC(=O)O)c4cc(O)cc(O)c4-c4cc3ccc4O)[C@H](O)c3ccc(c(Cl)c3)Oc3cc2cc(c3O[C@@H]2O[C@@H](CO)[C@@H](O)[C@H](O)[C@@H]2O[C@H]2C[C@](C)(Nc3ccc(F)cc3)[C@H](O)[C@H](C)O2)Oc2ccc(cc2Cl)[C@H]1O`, for which the MIC with Staphylococcus aureus [1], with Staphylococcus aureus [2], with Enterococcus faecalis [3] and in the assay with Enterococcus faecalis [4] was greater than 10 µg/mL in each case.

On to `CCC(CC)N[C@H](CC(C)C)C(=O)N[C@H]1C(=O)N[C@@H](CC(N)=O)C(=O)N[C@H]2C(=O)N[C@H]3C(=O)N[C@H](C(=O)N[C@H](C(=O)NCC(=O)O)c4cc(O)cc(O)c4-c4cc3ccc4O)[C@H](O)c3ccc(c(Cl)c3)Oc3cc2cc(c3O[C@@H]2O[C@@H](CO)[C@@H](O)[C@H](O)[C@@H]2O[C@H]2C[C@](C)(Nc3ccc(-c4ccccc4)cc3)[C@H](O)[C@H](C)O2)Oc2ccc(cc2Cl)[C@H]1O`, for which the minimum inhibitory concentration (MIC) is 2.5 µg/mL (≈ 1.46 µM) with Staphylococcus aureus [1], 5 µg/mL (≈ 2.92 µM) with Staphylococcus aureus [2], 5 µg/mL (≈ 2.92 µM) against Enterococcus faecalis [3] and greater than 10 µg/mL with Enterococcus faecalis [4].

As for `CC(C)C[C@@H](N)C(=O)N[C@@H]1C(=O)N[C@@H](CC(N)=O)C(=O)N[C@H]2C(=O)N[C@H]3C(=O)N[C@H](C(=O)N[C@H](C(=O)O)c4cc(O)cc(O)c4-c4cc3ccc4O)[C@H](O)c3ccc(c(Cl)c3)Oc3cc2cc(c3O[C@@H]2O[C@H](CO)[C@@H](O)[C@H](O)[C@H]2O[C@H]2C[C@](C)(N)C(O)[C@H](C)O2)Oc2ccc(cc2Cl)[C@H]1O` (some centres undefined) [DEMETHYLVANCOMYCIN], the minimal inhibitory concentration (MIC) in the assay on Staphylococcus aureus [1] is less than 0.6 µg/mL; with Staphylococcus aureus [2], less than 0.6 µg/mL; against Enterococcus faecalis [3], 2.5 µg/mL (≈ 1.74 µM); in the assay with Enterococcus faecalis [4], greater than 10 µg/mL.
